According to patent US10385019B2, “Inhibitors of EGFR and methods of use thereof” (Dana-Farber Cancer Institute, Inc., priority 2015, dated 2019):

Biological target: EGFR T790M/L858R Ba/F3 cell line (Homo sapiens, UniProt P00533, T790M/L858R, cells depend on it)
Assay: Ba/F3 cell proliferation model
Format: cell-based, murine
Conditions: combined with cetuximab (% cetuximab, 1.0 μM drug concentration with 1.0 μg/mL cetuximab)
Source text: The selectivity between wild-type EGFR and EGFR containing one or more mutations as described herein can also be measured using cellular proliferation assays where cell proliferation is dependent on kinase activity. For example, murine Ba/F3 cells transfected with a suitable version of wild-type EGFR (such as VIII; containing a WT EGFR kinase domain), or Ba/F3 cells transfected with L858R/T790M, Del/T790M/L718Q, L858R/T790M/L718Q, L858R/T790M/C797S, Del/T790M/C797S, L858R/T790M/I941R, or Exon 19 deletion/T790M can be used.
Cell lines are plated in media. The compounds of the present disclosure are then serially diluted and transferred to the cells. Cell viability is measured via a luminescent readout. Data is analyzed by non-linear regression curve-fitting. […]
The EGFR mutant L858R, Del E746_A750, L858R/T790M, DelE746_A750/T790M, L858R/T790M/C797S and Del/T790M/C797S Ba/F3 cells have been previously described (Zhou, W., Ercan, D., Chen, L., Yun, C. H., Li, D., Capelletti, M., Cortot, A. B., Chirieac, L., Iacob, R. E., Padera, R., et al. “Novel mutant-selective EGFR kinase inhibitors against EGFR T790M,” Nature 462, (2009), 1070-1074). All cell lines were maintained in RPMI 1640 (Cellgro; Mediatech Inc., Herndon, Calif.) supplemented with 10% FBS 100 units/mL penicillin, 100 units/mL streptomycin, and 2 mM glutamine. L858R cells were maintained in ACL-4 media (Invitrogen, Carlsbad, Calif.) supplemented with 5% FBS, 100 units/mL penicillin, 100 units/mL streptomycin, and 2 mM glutamine. The EGFR I941R mutation was introduced via site directed mutagenesis using the Quick Change Site-Directed Mutagenesis kit (Stratagene; La Jolla, Calif.) according to the manufacturer's instructions. All constructs were confirmed by DNA sequencing. The constructs were shuttled into the retroviral vector JP 1540 using the BD Creator™ System (BD Biosciences). Ba/F3 cells were infected with retrovirus and according to standard protocols, as described previously (Zhou et al, Nature 2009). Stable clones were obtained by selection in puromycin (2 μg/ml).
Growth and inhibition of growth was assessed by MTS assay and was performed according to previously established methods (Zhou et al., Nature 2009). The MTS assay is a colorimetric method for determining the number of viable cells that is based on the bioreduction of MTS by cells to a formazan product that is soluble in cell culture medium and can be detected spectrophotometrically. Ba/F3 cells of different EGFR genotypes were exposed to treatment for 72 hours and the number of cells used per experiment determined empirically and has been previously established (Zhou et al., Nature 2009). All experimental points were set up in six wells and all experiments were repeated at least three times. […] The curves were fitted using a non-linear regression model with a sigmoidal dose response.
Inhibition data of an EGFR T790M/L858R Ba/F3 cell line.

EGFR T790M/L858R Ba/F3 cell line, sequence (P00533 whole entry T790M/L858R): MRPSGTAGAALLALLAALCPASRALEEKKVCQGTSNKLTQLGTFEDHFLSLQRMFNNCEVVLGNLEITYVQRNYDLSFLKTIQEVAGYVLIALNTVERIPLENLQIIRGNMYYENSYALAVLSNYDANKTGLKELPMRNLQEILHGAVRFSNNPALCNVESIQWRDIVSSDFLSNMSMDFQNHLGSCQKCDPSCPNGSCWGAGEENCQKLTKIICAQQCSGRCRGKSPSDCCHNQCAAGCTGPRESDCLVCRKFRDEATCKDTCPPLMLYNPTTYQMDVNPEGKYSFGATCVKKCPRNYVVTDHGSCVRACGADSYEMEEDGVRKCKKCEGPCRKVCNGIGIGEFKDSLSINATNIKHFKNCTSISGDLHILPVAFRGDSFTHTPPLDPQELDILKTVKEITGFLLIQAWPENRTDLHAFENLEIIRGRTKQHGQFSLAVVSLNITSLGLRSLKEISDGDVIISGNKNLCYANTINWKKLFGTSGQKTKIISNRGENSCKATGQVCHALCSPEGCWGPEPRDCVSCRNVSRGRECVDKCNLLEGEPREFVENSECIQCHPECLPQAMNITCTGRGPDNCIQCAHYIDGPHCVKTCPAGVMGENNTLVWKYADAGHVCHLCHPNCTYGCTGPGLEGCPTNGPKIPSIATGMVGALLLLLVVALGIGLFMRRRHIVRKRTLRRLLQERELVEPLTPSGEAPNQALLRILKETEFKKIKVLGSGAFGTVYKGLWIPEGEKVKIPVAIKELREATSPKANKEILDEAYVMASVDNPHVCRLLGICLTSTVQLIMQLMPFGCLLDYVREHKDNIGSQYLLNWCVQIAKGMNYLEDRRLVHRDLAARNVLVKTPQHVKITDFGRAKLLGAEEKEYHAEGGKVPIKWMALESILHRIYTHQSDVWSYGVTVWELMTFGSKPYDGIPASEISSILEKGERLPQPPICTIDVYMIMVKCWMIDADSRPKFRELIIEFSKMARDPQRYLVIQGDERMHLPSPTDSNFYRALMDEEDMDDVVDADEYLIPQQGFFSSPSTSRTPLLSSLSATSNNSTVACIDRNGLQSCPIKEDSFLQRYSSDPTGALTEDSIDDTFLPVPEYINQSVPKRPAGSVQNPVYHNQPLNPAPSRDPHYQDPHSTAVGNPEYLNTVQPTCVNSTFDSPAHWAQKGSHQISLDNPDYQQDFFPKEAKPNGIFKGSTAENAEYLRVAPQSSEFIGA

| Compound | Activity (% inhibition) |
| --- | --- |
| O=C(Nc1nccs1)[C@@H](c1ccccc1)N1Cc2cc(Nc3ccc(OCc4ccccc4)cc3)ccc2C1=O [Compound I-96, (R)-2-(5-((4-(benzyloxy)phenyl)amino)-1-oxoisoindolin-2-yl)-2-phenyl-N-(thiazol-2-yl)acetamide] | A (a % inhibition of about 75%) |
| O=C(Nc1nc(Br)cs1)[C@@H](Cc1ccccc1)N1Cc2ccccc2C1=O [Compound I-50, (R)-N-(4-bromothiazol-2-yl)-2-(1-oxoisoindolin-2-yl)-3-phenylpropanamide] | A (a % inhibition of about 75%) |
| O=C(Nc1nccs1)[C@@H](c1cccc([N+](=O)[O-])c1)N1Cc2ccc(-c3ccc4[nH]ccc4c3)cc2C1=O [Compound I-109, (R)-2-(6-(1H-indol-5-yl)-1-oxoisoindolin-2-yl)-2-(3-nitrophenyl)-N-(thiazol-2-yl)acetamide] | B (a % inhibition of between about 50% to about 75%) |
| O=C(Nc1ncc(Br)s1)[C@@H](c1ccccc1)N1Cc2ccccc2C1=O [Compound I-40, (R)-N-(5-bromothiazol-2-yl)-2-(1-oxoisoindolin-2-yl)-2-phenylacetamide] | A (a % inhibition of about 75%) |
| O=C(Nc1nccs1)[C@@H](c1cccc([N+](=O)[O-])c1)N1Cc2ccccc2C1=O [Compound I-18, (R)-2-(3-nitrophenyl)-2-(1-oxoisoindolin-2-yl)-N-(thiazol-2-yl)acetamide] | A (a % inhibition of about 75%) |
| O=C(Nc1nccs1)[C@@H](c1ccccc1)N1Cc2cc(-c3ccc4[nH]ccc4c3)ccc2C1=O [Compound I-104, (R)-2-(5-(1H-indol-5-yl)-1-oxoisoindolin-2-yl)-2-phenyl-N-(thiazol-2-yl)acetamide] | C (a % inhibition of between about 25% to about 50%) |
| O=C(NCCCN1CCOCC1)c1cccc(-c2ccc3c(c2)C(=O)N([C@@H](C(=O)Nc2nccs2)c2ccccc2)C3)c1 [Compound I-91, (R)-N-(3-morpholinopropyl)-3-(3-oxo-2-(2-oxo-1-phenyl-2-(thiazol-2-ylamino)ethyl)isoindolin-5-yl)benzamide] | D (a % inhibition of between about 0% to about 25%) |
| O=C(Nc1nccs1)[C@@H](c1ccccc1)N1Cc2cc(Nc3ccccc3)ccc2C1=O [Compound I-93, (R)-2-(1-oxo-5-(phenylamino)isoindolin-2-yl)-2-phenyl-N-(thiazol-2-yl)acetamide] | A (a % inhibition of about 75%) |
| O=C(Nc1nccs1)[C@@H](c1ccccc1)N1Cc2ccc(-c3cccc4cccnc34)cc2C1=O [Compound I-71, (R)-2-(1-oxo-6-(quinolin-8-yl)isoindolin-2-yl)-2-phenyl-N-(thiazol-2-yl)acetamide] | C (a % inhibition of between about 25% to about 50%) |
| O=C(Nc1nccs1)[C@@H](c1ccccc1)N1Cc2cc(-c3ccccc3F)ccc2C1=O [Compound I-101, (R)-2-(5-(2-fluorophenyl)-1-oxoisoindolin-2-yl)-2-phenyl-N-(thiazol-2-yl)acetamide] | B (a % inhibition of between about 50% to about 75%) |
| C[C@@H](NC(=O)[C@H](c1ccccc1)N1Cc2ccccc2C1=O)c1ccccc1 [Compound I-1, (S)-2-(1-oxoisoindolin-2-yl)-2-phenyl-N-((R)-1-phenylethyl)acetamide] | A (a % inhibition of about 75%) |
| O=C(Nc1nccs1)[C@@H](c1ccccc1)N1Cc2ccc(-c3ccsc3)cc2C1=O [Compound I-47, (R)-2-(1-oxo-6-(thiophen-3-yl)isoindolin-2-yl)-2-phenyl-N-(thiazol-2-yl)acetamide] | B (a % inhibition of between about 50% to about 75%) |
| CCn1cc(-c2ccc3c(c2)C(=O)N([C@@H](C(=O)Nc2nccs2)c2ccccc2)C3)cn1 [Compound I-63, (R)-2-(6-(1-ethyl-1H-pyrazol-4-yl)-1-oxoisoindolin-2-yl)-2-phenyl-N-(thiazol-2-yl)acetamide] | C (a % inhibition of between about 25% to about 50%) |
| O=C(Nc1nccs1)[C@H](c1ccccc1)N1Cc2ccccc2C1=O [Compound I-21, (S)-2-(1-oxoisoindolin-2-yl)-2-phenyl-N-(thiazol-2-yl) acetamide] | B (a % inhibition of between about 50% to about 75%) |
| O=C(Nc1nccs1)C(c1ccccn1)N1Cc2ccc(-c3ccc4[nH]ccc4c3)cc2C1=O (stereo not drawn) [Compound I-123, 2-(6-(1H-indol-5-yl)-1-oxoisoindolin-2-yl)-2-(pyridin-2-yl)-N-(thiazol-2-yl)acetamide] | D (a % inhibition of between about 0% to about 25%) |
| CN1CCN(c2ccc(-c3ccc4c(c3)CN([C@@H](C(=O)Nc3nccs3)c3ccccc3)C4=O)cc2)CC1 [Compound I-102, (R)-2-(5-(4-(4-methylpiperazin-1-yl)phenyl)-1-oxoisoindolin-2-yl)-2-phenyl-N-(thiazol-2-yl)acetamide] | B (a % inhibition of between about 50% to about 75%) |
| O=C(Nc1nccs1)[C@@H](c1ccccc1)N1Cc2ccc(Nc3ccccc3)cc2C1=O [Compound I-98, (R)-2-(1-oxo-6-(phenylamino)isoindolin-2-yl)-2-phenyl-N-(thiazol-2-yl)acetamide] | C (a % inhibition of between about 25% to about 50%) |
| O=C(Nc1cnoc1)[C@@H](c1ccccc1)N1Cc2ccc(-c3ccc4[nH]ccc4c3)cc2C1=O [Compound I-130, (R)-2-(6-(1H-indol-5-yl)-1-oxoisoindolin-2-yl)-N-(isoxazol-4-yl)-2-phenylacetamide] | C (a % inhibition of between about 25% to about 50%) |
| CNC(=O)c1csc(NC(=O)[C@@H](c2ccccc2)N2Cc3ccccc3C2=O)n1 [Compound I-9, (R)-N-methyl-2-(2-(1-oxoisoindolin-2-yl)-2-phenylacetamido) thiazole-4-carboxamide] | A (a % inhibition of about 75%) |
| O=C(Nc1ncco1)[C@H](c1ccccc1)N1Cc2ccccc2C1=O [Compound I-20, (S)-N-(oxazol-2-yl)-2-(1-oxoisoindolin-2-yl)-2-phenylacetamide] | A (a % inhibition of about 75%) |
| O=C(Nc1nccs1)[C@H](c1cccc([N+](=O)[O-])c1)N1Cc2ccccc2C1=O [Compound I-12, (S)-2-(3-nitrophenyl)-2-(1-oxoisoindolin-2-yl)-N-(thiazol-2-yl)acetamide] | A (a % inhibition of about 75%) |
| CCOC(=O)c1csc(NC(=O)[C@H](Cc2ccccc2)N2Cc3ccccc3C2=O)n1 [Compound I-48, ethyl (S)-2-(2-(1-oxoisoindolin-2-yl)-3-phenylpropanamido) thiazole-4-carboxylate] | A (a % inhibition of about 75%) |
| O=C(Nc1nccs1)[C@@H](c1ccccc1)N1Cc2cc(Nc3cccc(F)c3)ccc2C1=O [Compound I-97, (R)-2-(5-((3-fluorophenyl)amino)-1-oxoisoindolin-2-yl)-2-phenyl-N-(thiazol-2-yl)acetamide] | A (a % inhibition of about 75%) |
| O=C(Nc1nccs1)[C@H](Cc1ccccc1)N1Cc2ccccc2C1=O [Compound I-45, (S)-2-(1-oxoisoindolin-2-yl)-3-phenyl-N-(thiazol-2-yl) propanamide] | A (a % inhibition of about 75%) |
